The source of these data is publication PMC2576538 (The Journal of Biological Chemistry, 2008).

What is called Kd is the free concentration of one partner at which half of the binding sites on the other are occupied at equilibrium, for simple one-to-one binding.

Ends that are not written are not given here. * marks the point of attachment. Biotin = O=C1N[C@H]2[C@H](CS[C@H]2CCCCC(=O)*)N1

Experiment [1] has as its system Cpe30 peptide. It counts as binding, Clostridium perfringens.
For experiment [2], the target named is Cpe17 (last C-terminal 17 amino acids of Cpe), biotinylated (Clostridium perfringens) (UniProt P01558). The experiment is described as follows: SPR. Background: SPR reads the build-up and loss of mass on a sensor chip optically.
The target of experiment [3] is Biotin-Cpe30 (Clostridium perfringens) (UniProt P01558). The experiment is described as follows: SPR.
In experiment [4] the target is T1, GST-claudin-4, full length (mouse, UniProt O35054 1-210).
T1 sequence: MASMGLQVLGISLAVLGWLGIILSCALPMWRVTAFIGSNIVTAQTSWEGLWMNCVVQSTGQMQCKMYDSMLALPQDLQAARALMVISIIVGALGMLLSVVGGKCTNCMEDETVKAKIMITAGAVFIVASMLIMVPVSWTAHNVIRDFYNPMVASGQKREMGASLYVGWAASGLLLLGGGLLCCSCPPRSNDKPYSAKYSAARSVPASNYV
In words: SPR.

For the molecule “AHNVIRDFYNPMVASGQKREMGASL (disulfide (positions not given here)) [B-lariat-Ecl2]”, the “Binding of immobilized Ecl2 peptide to Cpe30, in words” value (shortened to “Binding of immobilized Ecl2 peptide”) in experiment [1] is recorded as “does not bind”.

Consider “(138)AHNVIRDFYNPM VASGQKREMGASL(160) [B-Ecl2]”, for which the “Binding of immobilized Ecl2 peptide” value in experiment [1] is “does not bind”.

In the case of AHNVIRDFYNPMVASGQKREMGASL [B-Ecl2-B], the “Binding of immobilized Ecl2 peptide” value in experiment [1] is “does not bind”. In the case of “GST-Cldn-4.R4 (GST fused to claudin-4 from Ecl2 through the C terminus) (domain or fragment)”, the values for the Kd in experiment [2] and in experiment [3] were 1.57 nM and 2.56 nM, respectively. For Biotin-SLDAGQYVLVMKANSSYSGNYPYSILFQKF [Biotin-Cpe30], the binding result in experiment [4] is listed as “binds”.
